Laboratory results published in paper PMC9081086, “Stapling strategy enables improvement of antitumor activity and proteolytic stability of host-defense peptide hymenochirin-1B” (RSC Advances, 2018).
Positions of bridges follow the written chain, without caps; N, C: chain ends. Non-standard residues stand in square brackets, D forms with d. Residues, ends and D or L forms follow the SMILES beside them. S5 = C=CCCC[C@](C)(N)C(=O)O

Columns and labels:
[1] = the molecule shown is the open-chain precursor; 33-membered ring; resin; 60 steps
[2] = Circular dichroism, α-helicity; type: physicochemical; conditions: CD, TFE/water (1:1), 50 μM peptide, 25 °C, 1 mm cuvette, calculated from [θ]222
Description: The linear and stapled peptides were dissolved in the trifluoroethanol (TFE) and water (1 : 1) to a final concentration of 50 μM, respectively. The CD spectra were obtained with 1 mm quartz cuvette on Jasco-815 spectropolarimeter at 25 °C. The measurement parameters were set up as follows: wavelength, 185–260 nm; step resolution, 0.5 nm; speed, 20 nm min^−1. All spectra were converted to a uniform scale of molar ellipticity after background subtraction. The curves were smoothed using standard parameters. The ellipticity in the acquired CD spectra was converted to the molar ellipticity using the equation: [θ] = θ/(10 × c × l), where, [θ] is the Molar ellipticity (deg cm^2. d mol^−1), θ is the observed ellipticity corrected for the buffer at a given wavelength (m deg), c is the molar concentration and l is the path length (cm). The helicity of each peptide was calculated as described in a literature based on the ellipticity of the peptide's spectrum at 222 nm and the number of amino acids in the peptide sequence.
Circular dichroism (CD) spectroscopy was used to investigate the secondary structures of the stapled and template peptides to probe structural changes induced by conformation constraint in a membrane-like milieu, including […] (TFE) and water (1 : 1). […] (Table 1, ESI ^†).

[3] = tested on: human normal liver cell LO-2; assay: MTT toxicity against normal cells, LO-2; type: cell-based; conditions: 96 h
Description: (§1) Anti-tumor activity was evaluated by the standard MTT assay with a slight modification measuring the median inhibitory concentration (IC50) values.[35] HCT-116 cells, HepG2 cells and A549 cells were plated in triplicate wells into a 96-well plate at 5 × 10^3/well and cultured routinely for 24 h. Cells were incubated with increasing concentrations of hymenochirin-1B and its analogs (0.1–30 μM) and continued to culture with DMEM plus 10% FBS at 37 °C and 5% CO2. After being incubated for 96 h, the absorbance A value was determined by MTT at 540 nm. The untreated HCT-116 cells, HepG2 cells and A549 cells were used as control. Each experiment was performed in duplicate. The inhibitory rate was calculated according to the following formula: inhibitory rate = (a value of the control group − a value of the study group)/a value of the control group × 100%.
(§2) To further research the selectivity of these peptides towards cancer cells over normal cells. The growth-inhibitory activities of peptides were evaluated using the 3-(4,5-dimethylthiazol-2-yl)-2,5-diphenyltetrazolium bromide (MTT) assay against three normal cells,[35] namely, human normal liver cell LO-2, human normal Lung cell BEAS-2 and human normal kidney cell 293 T (Table S2 ^†). The experiments procedure was performed just same as growth inhibition of the peptides against tumor cells. […] It might be due to the higher averaged hydrophobicity produced by six or nine additional methylene and two olefinic carbons to the peptide to increase toxicity to human normal cells. This situation may be resolved through the addition of polar character and glycosylation into the sequence to decrease the averaged hydrophobicity to improve the selectivity of these peptides towards cancer cells over normal cells. These modifications of these peptides are under way, and the present study was focused on the improved anti-tumor activity of template peptide hymenochirin-1B.

[4] = tested on: human normal Lung cell BEAS-2; assay: MTT toxicity against normal cells, BEAS-2B; type: cell-based; conditions: 96 h
Description: as §1, §2

[5] = tested on: human normal kidney cell 293 T; assay: MTT toxicity against normal cells, 293T; type: cell-based; conditions: 96 h
Description: as §1, §2

[6] = Protease resistance (trypsin degradation, HPLC); type: in vitro ADME; conditions: trypsin solution (5 ng/µL); trypsin 5 ng/μL in 50 mM PBS with 2 mM CaCl2, pH 7.4 (method: trypsin buffer pH 8), peptide 0.1 mM final, room temperature, sampled 0–3.5 h, HCl quench, HPLC 214 nm, duplicate; read-out: half-life (t1/2) toward trypsin degradation (converted)
Description: The peptides were dissolved in PBS buffer solutions (50 mM, pH = 7.4) to a final concentration of 1 mM, respectively. Trypsin was dissolved in PBS buffer (50 mM, containing 2 mM of CaCl2, pH = 8) to a final concentration of 5 ng μL^−1. Then the peptide solutions (100 μL) were incubated with trypsin solution (1 mL) at room temperature. 100 μL of digestion mixture was taken at the 0, 0.5, 1.0, 1.5, 2.0, 2.5, 3.0, and 3.5 h marks, then quenched with 20 μL of hydrochloric acid (1 M). The solution of the trypsin peptide fragments was monitored by HPLC at different time to determine the fraction of protease degradation at 214 nm. Each experiment was performed in duplicate.
To assess the protease stability of the stapled peptides, we measured their susceptibility toward trypsin degradation at room temperature in PBS buffer (pH 7.4) with monitored by HPLC. Trypsin is a protease that predominantly cleaves at the carboxyl terminus of positive charge amino acids, such as arginine and lysine. […] Especially, only about 49% of bicyclic stapled peptide H-10 was cleaved after 3.5 h (Fig. 3 and S4 ^†).
Fig. 3 Proteolytic stability of peptides incubated in trypsin solution (5 ng μL^−1 in 50 mM PBS buffer, pH = 7.4) at a final concentration of 0.1 mM. […] The percent of residual peptide was monitored by Analytic HPLC. All experiments were repeated at least three times. H-0 represents hymenochirin-1B.

Compound | ring closure, overall yield [1] | Helicity (%) [2] | IC50 (μM) LO-2, toxicity against normal cells [3] | IC50 (μM) BEAS-2B, toxicity against normal cells [4] | IC50 (μM) 293T, toxicity against normal cells [5] | half-life at 0.1 mM [6]
C=CCCCCCC[C@@](C)(NC(=O)[C@H](CCCCNC(=O)OC(C)(C)C)NC(=O)[C@H](CC(C)C)NC(=O)[C@@H](NC(=O)[C@H](CCCCNC(=O)OC(C)(C)C)NC(=O)[C@H](CCCCNC(=O)OC(C)(C)C)NC(=O)[C@H](CC(C)C)NC(=O)[C@H](CC(=O)NC(c1ccccc1)(c1ccccc1)c1ccccc1)NC(=O)[C@H](CC(=O)OC(C)(C)C)NC(=O)[C@H](CCCCNC(=O)OC(C)(C)C)NC(=O)[C@@H](NC(=O)[C@H](CCC(=O)OC(C)(C)C)NC(=O)[C@@H]1CCCN1C(=O)[C@H](COC(C)(C)C)NC(=O)[C@H](CC(C)C)NC(=O)[C@H](CCCCNC(=O)OC(C)(C)C)NC(=O)[C@@H](NC(=O)OCC1c2ccccc2-c2ccccc21)[C@@H](C)CC)[C@@H](C)OC(C)(C)C)C(C)C)C(=O)N[C@@H](C)C(=O)N[C@H](C(=O)N[C@@H](CCCCNC(=O)OC(C)(C)C)C(=O)NCC(=O)N[C@@H](C)C(=O)N[C@H](C(=O)N[C@@](C)(CCCC=C)C(=O)N[C@H](C(=O)N[C@@H](C)C(=O)N[C@@H](CCCCNC(=O)OC(C)(C)C)C(=O)N[C@@H](CCSC)C(=O)N[C@H](C(N)=O)C(C)C)C(C)C)[C@@H](C)CC)[C@@H](C)CC | 6.72% | – | – | – | – | –
CC[C@H](C)[C@H](N)C(=O)N[C@@H](CCCCN)C(=O)N[C@@H](CC(C)C)C(=O)N[C@@H](CO)C(=O)N1CCC[C@H]1C(=O)N[C@@]1(C)CCCC=CCCC[C@@](C)(C(=O)N[C@@H](CC(C)C)C(=O)N[C@@H](CCCCN)C(=O)N[C@@H](CCCCN)C(=O)N[C@H](C(=O)N[C@@H](CC(C)C)C(=O)N[C@@H](CCCCN)C(=O)NCC(=O)N[C@@H](C)C(=O)N[C@H](C(=O)N[C@@H](CCCCN)C(=O)NCC(=O)N[C@@H](C)C(=O)N[C@H](C(=O)N[C@@H](C)C(=O)N[C@H](C(=O)N[C@@H](C)C(=O)N[C@@H](CCCCN)C(=O)N[C@@H](CCSC)C(=O)N[C@H](C(N)=O)C(C)C)C(C)C)[C@@H](C)CC)[C@@H](C)CC)C(C)C)NC(=O)[C@H](CC(=O)O)NC(=O)[C@H](CCCCN)NC(=O)[C@H]([C@@H](C)O)NC1=O [H-2] (H-IKLSP[S5]TKD[S5]LKKVLKGAIKGAIAVAKMV-NH2; staple 6-10) | – | 49.3% | 3.40 ± 0.32 µM | 3.12 ± 0.52 µM | 3.20 ± 0.33 µM | 30 min
